In US20100069340A1, “PHARMACEUTICAL COMPOSITIONS OF AN SRC KINASE INHIBITOR AND AN AROMATASE INHIBITOR” (Wyeth, priority 2008, published 2010):

Legend:
[1] = system: advanced or metastatic breast cancer; test: Phase 2 open-label study of bosutinib, efficacy; format: in vivo, human; details: 400 mg once-daily
Method: (§1) In a phase 2, open-label, study of bosutinib in subjects with advanced or metastatic breast cancer where bosutinib is given at 400 mg once-daily, 73 total patients were randomized. As of 9 Jun. […] All of the responding patients had ER/PgR+ metastatic disease, but were less heavily pretreated with chemotherapy than typical patients and none had received prior endocrine therapy. […] In that trial, the median PFS was 15 weeks for all patients, 15.6 weeks and 14.9 weeks in ER+ and/or PgR+ and ER+ and/or PgR+, HER2-patients subgroups, respectively. There were 51 ER/PgR+ patients enrolled in the trial and a little more than half had received prior endocrine therapy, out of them 33 patients were ER/PgR+, HER2-. The preliminary safety data available for 73 subjects as of 9 Jun. 2008 are consistent with data from other ongoing studies. TEAEs were most frequently associated with gastrointestinal disorders (diarrhea, 66%; nausea, 55%; vomiting, 47%; abdominal pain, 12%; dyspepsia, 10%), general disorders (fatigue, 26%, asthenia, 19%, peripheral oedema, 11%; pyrexia, 10%), infections and infestations (16%), metabolism disorders (ALT increase, 12%; AST increase, 12%, weight loss, 11%; anorexia, 18%), musculoskeletal disorders (anthralgia, 12%; back pain, 12%), headache (14%), and rash (14%). Out of all of these TEAEs, only gastrointestinal disorders (diarrhea, 64%; nausea, 51%; vomiting, 42%; abdominal pain, 10%), general disorders (fatigue, 16%, asthenia, 14%), metabolism disorders (ALT increase, 11%; AST increase, 10%; anorexia, 15%) and rash (10%) were considered at least possibly related to bosutinib.

[2] = Phase 2 open-label study of bosutinib, safety (TEAEs); format: in vivo, human; details: 400 mg once-daily, 73 subjects
Method: as §1

Structure (SMILES): COc1cc(Nc2c(C#N)cnc3cc(OCCCN4CCN(C)CC4)c(OC)cc23)c(Cl)cc1Cl [bosutinib]
- tumor shrinkage in the near response [1]: 29%
- clinical benefit ([1]; 73 patients, responders plus stable disease ≧24 weeks): 27.4%
- near response ([1]; of 73 patients): 1
- partial response ([1]; of 73 patients): 4 subjects
- stable disease ≧24 weeks ([1]; of 73 patients): 13 patients
- median PFS ([1]; ER+ and/or PgR+ subgroup): 15.6 weeks
- median PFS ([1]; ER+ and/or PgR+, HER2- subgroup): 14.9 weeks
- median PFS ([1]; all patients): 15 weeks
- TEAE ALT increase ([2]; all TEAEs): 12%
- TEAE AST increase ([2]; all TEAEs): 12%
- TEAE abdominal pain ([2]; all TEAEs): 12%
- TEAE anorexia ([2]; all TEAEs): 18%
- TEAE anthralgia ([2]; all TEAEs): 12%
- TEAE asthenia ([2]; all TEAEs): 19%
- TEAE back pain ([2]; all TEAEs): 12%
- TEAE diarrhea ([2]; all TEAEs): 66%
- TEAE dyspepsia ([2]; all TEAEs): 10%
- TEAE fatigue ([2]; all TEAEs): 26%
- TEAE headache ([2]; all TEAEs): 14%
- TEAE infections and infestations ([2]; all TEAEs): 16%
- TEAE nausea ([2]; all TEAEs): 55%
- TEAE peripheral oedema ([2]; all TEAEs): 11%
- TEAE pyrexia ([2]; all TEAEs): 10%
- TEAE rash ([2]; all TEAEs): 14%
- TEAE vomiting ([2]; all TEAEs): 47%
- TEAE weight loss ([2]; all TEAEs): 11%
- TEAE ALT increase, at least possibly related to bosutinib ([2]; related TEAEs): 11%
- TEAE AST increase, at least possibly related to bosutinib ([2]; related TEAEs): 10%
- TEAE abdominal pain, at least possibly related to bosutinib ([2]; related TEAEs): 10%
- TEAE anorexia, at least possibly related to bosutinib ([2]; related TEAEs): 15%
- TEAE asthenia, at least possibly related to bosutinib ([2]; related TEAEs): 14%
- TEAE diarrhea, at least possibly related to bosutinib ([2]; related TEAEs): 64%
- TEAE fatigue, at least possibly related to bosutinib ([2]; related TEAEs): 16%
- TEAE nausea, at least possibly related to bosutinib ([2]; related TEAEs): 51%
- TEAE rash, at least possibly related to bosutinib ([2]; related TEAEs): 10%
- TEAE vomiting, at least possibly related to bosutinib ([2]; related TEAEs): 42%
